Consider 19 compounds from PubChem BioAssay AID330 (DTP/NCI, 2004).

The subject of the experiment is P388 leukemia ip, CD2F1 mice, survival T/C. As to the kind of experiment: NCI In Vivo Anticancer Drug Screen. Data for tumor model P388 Leukemia (intraperitoneal) in CD2F1 (CDF1) mice. Conditions: endpoint: median survival time, higher = longer survival. The procedure, abridged: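 Mice carrying the transplanted tumor received test compound or vehicle. Survival was recorded in each group, and the value is the treated-group measurement divided by that of the vehicle-treated control group.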

[1] abbreviates: dose: 25.0 mg/kg/injection, schedule: Q01DX005 (ip), vehicle: Klucel (hydroxypropylcellulose) (HPC).
[2] abbreviates: dose: 50.0 mg/kg/injection, schedule: Q01DX005 (ip), vehicle: Klucel (hydroxypropylcellulose) (HPC).
Setting [3] is: dose: 100.0 mg/kg/injection, schedule: Q01DX005 (ip), vehicle: Klucel (hydroxypropylcellulose) (HPC).
[4] abbreviates: dose: 50.0 mg/kg/injection, schedule: Q01DX009 (ip), vehicle: saline with Tween-80.
Setting [5] is: dose: 100.0 mg/kg/injection, schedule: Q01DX009 (ip), vehicle: saline with Tween-80.
[6] abbreviates: dose: 200.0 mg/kg/injection, schedule: Q01DX009 (ip), vehicle: saline with Tween-80.
[7] abbreviates: dose: 100.0 mg/kg/injection, schedule: Q01DX001 (ip), vehicle: saline.
Where [8] appears, read: dose: 200.0 mg/kg/injection, schedule: Q01DX001 (ip), vehicle: saline.
[9] abbreviates: dose: 400.0 mg/kg/injection, schedule: Q01DX001 (ip), vehicle: saline.

Values joined by “and” are separate entries in the source; they are usually repeats but may differ in a detail not shown here. Identical values can stand only once. Toxic doses and inconclusive results are not listed.

Consider `O=C1C(CO)NC(=S)N1c1ccccc1` (configuration not stated), for which the T/C is 109 % of control (dose: 12.5 mg/kg/injection, schedule: Q01DX001 (ip), vehicle: saline with Tween-80); 102 % of control (dose: 25.0 mg/kg/injection, schedule: Q01DX001 (ip), vehicle: saline with Tween-80); 97 % of control (dose: 50.0 mg/kg/injection, schedule: Q01DX001 (ip), vehicle: saline with Tween-80); 105 % of control (dose: 100.0 mg/kg/injection, schedule: Q01DX001 (ip), vehicle: saline with Tween-80); 102 % of control (dose: 200.0 mg/kg/injection, schedule: Q01DX001 (ip), vehicle: saline with Tween-80).

With `Nc1c(/C=C/c2cc3ccc(C4=NCCN4)cc3[nH]2)[nH]c2cc(C3=NCCN3)ccc12`, the T/C was 111 % of control (dose: 12.5 mg/kg/injection, schedule: Q01DX005 (ip), vehicle: Klucel (hydroxypropylcellulose) (HPC)); 120 % of control under setting [1]; 189 % of control under setting [2]; 223 % of control under setting [3].

Take `O=C1SCCC1CO` (configuration not stated): the T/C is, setting by setting: (dose: 25.0 mg/kg/injection, schedule: Q04DX003 (ip), vehicle: saline) 100 % of control; (dose: 50.0 mg/kg/injection, schedule: Q04DX003 (ip), vehicle: saline) 106 % of control.

For `CCCCCCCC#CC(=O)OC`, the T/C reads like this: under setting [4], 95 % of control; under setting [5], 101 % of control; under setting [6], 101 % of control.

With `Clc1ncnc2c1ncn2C1CCCCO1` (configuration not stated), the T/C runs as follows: (dose: 50.0 mg/kg/injection, schedule: Q04DX003 (ip), vehicle: saline with Tween-80) 104 % of control; (dose: 100.0 mg/kg/injection, schedule: Q01DX009 (ip), vehicle: other) 95 % of control; (dose: 100.0 mg/kg/injection, schedule: Q04DX003 (ip), vehicle: saline with Tween-80) 100 % of control; (dose: 200.0 mg/kg/injection, schedule: Q01DX009 (ip), vehicle: other) 95 % of control; (dose: 200.0 mg/kg/injection, schedule: Q04DX003 (ip), vehicle: saline with Tween-80) 100 % of control; (dose: 400.0 mg/kg/injection, schedule: Q04DX003 (ip), vehicle: saline with Tween-80) 100 % of control.

As for `c1ccc2c(c1)ccc1c3ccccc3ncc21`, the T/C by setting is: (dose: 12.5 mg/kg/injection, schedule: Q04DX003 (ip), vehicle: distilled water + Tween-80) 107 % of control; (dose: 25.0 mg/kg/injection, schedule: Q04DX003 (ip), vehicle: distilled water + Tween-80) 96 % of control; (dose: 50.0 mg/kg/injection, schedule: Q04DX003 (ip), vehicle: distilled water + Tween-80) 98 % of control; (dose: 100.0 mg/kg/injection, schedule: Q04DX003 (ip), vehicle: distilled water + Tween-80) 102 % of control; (dose: 200.0 mg/kg/injection, schedule: Q04DX003 (ip), vehicle: distilled water + Tween-80) 102 % of control; (dose: 400.0 mg/kg/injection, schedule: Q04DX003 (ip), vehicle: distilled water + Tween-80) 98 % of control.

Regarding `Cc1cn(C2CC(O)C(C(=O)Nc3ccc(C(=O)CCl)cc3)O2)c(=O)[nH]c1=O` (configuration not stated), the T/C (dose: 50.0 mg/kg/injection, schedule: Q01DX005 (ip), vehicle: saline with Tween-80) is 108 % of control; the T/C (dose: 100.0 mg/kg/injection, schedule: Q01DX005 (ip), vehicle: saline with Tween-80) was 114 % of control; the T/C (dose: 200.0 mg/kg/injection, schedule: Q01DX005 (ip), vehicle: saline with Tween-80) was 109 % of control.

For the compound `COc1cc(OC)c(NC(=O)Oc2cc(C)c(I)cc2C)cc1Cl`, the T/C (dose: 6.25 mg/kg/injection, schedule: Q01DX009 (ip), vehicle: saline) was 118 % of control; the T/C (dose: 12.5 mg/kg/injection, schedule: Q01DX009 (ip), vehicle: saline) is 96 % of control; the T/C (dose: 25.0 mg/kg/injection, schedule: Q01DX009 (ip), vehicle: saline) is 93 % of control; the T/C (dose: 100.0 mg/kg/injection, schedule: Q01DX009 (ip), vehicle: saline + alcohol) was 98 % of control; the T/C (dose: 200.0 mg/kg/injection, schedule: Q01DX009 (ip), vehicle: saline + alcohol) is 95 % of control.

In the case of `O=C(CC1(O)C(=O)Nc2ccccc21)c1cccc([N+](=O)[O-])c1` (configuration not stated), the T/C reads like this: (dose: 60.0 mg/kg/injection, schedule: Q01DX005 (ip), vehicle: Klucel (hydroxypropylcellulose) (HPC)) 97 % of control; (dose: 120.0 mg/kg/injection, schedule: Q01DX005 (ip), vehicle: Klucel (hydroxypropylcellulose) (HPC)) 103 % of control; (dose: 240.0 mg/kg/injection, schedule: Q01DX005 (ip), vehicle: Klucel (hydroxypropylcellulose) (HPC)) 99 % of control.

With `CCC(c1ccc(C(C)=O)c(O)c1)C(CC)c1ccc(C(C)=O)c(O)c1` (configuration not stated), the T/C was 97 % of control (dose: 60.0 mg/kg/injection, schedule: Q01DX005 (ip), vehicle: saline with Tween-80); 90 % of control (dose: 120.0 mg/kg/injection, schedule: Q01DX005 (ip), vehicle: saline with Tween-80); 88 % of control (dose: 240.0 mg/kg/injection, schedule: Q01DX005 (ip), vehicle: saline with Tween-80).

In the case of `CCc1nc(N)nc(N)c1-c1ccc(Cl)c(N)c1`, the T/C reads like this: (dose: 3.12 mg/kg/injection, schedule: Q01DX009 (ip), vehicle: distilled water + Tween-80) 101 % of control; (dose: 6.25 mg/kg/injection, schedule: Q01DX009 (ip), vehicle: distilled water + Tween-80) 111 % of control; (dose: 12.5 mg/kg/injection, schedule: Q01DX009 (ip), vehicle: distilled water + Tween-80) 110 % of control; (dose: 25.0 mg/kg/injection, schedule: Q01DX009 (ip), vehicle: distilled water + Tween-80) 100 % of control; (dose: 50.0 mg/kg/injection, schedule: Q01DX009 (ip), vehicle: distilled water + Tween-80) 100 % of control and 111 % of control; (dose: 100.0 mg/kg/injection, schedule: Q01DX009 (ip), vehicle: distilled water + Tween-80) 105 % of control. Also, the T/C was 101 % of control (dose: 200.0 mg/kg/injection, schedule: Q01DX009 (ip), vehicle: distilled water + Tween-80) and 118 % of control (dose: 400.0 mg/kg/injection, schedule: Q01DX009 (ip), vehicle: distilled water + Tween-80).

Regarding `CC1CN1CCS(=O)(=O)CCN1CC1C` (configuration not stated), the T/C is 95 % of control under setting [4] and 104 % of control under setting [5].

In the case of `c1ccc(OC2CCCCC2N2CCOCC2)cc1` (configuration not stated), the T/C was 87 % of control (dose: 50.0 mg/kg/injection, schedule: Q01DX009 (ip), vehicle: suspension in saline); 87 % of control (dose: 100.0 mg/kg/injection, schedule: Q01DX009 (ip), vehicle: suspension in saline); 94 % of control (dose: 200.0 mg/kg/injection, schedule: Q01DX009 (ip), vehicle: suspension in saline).

On to `CC(=O)NC1=C(O)C2C(c3ccc(C)cc3)C(C#N)C(=O)N2C1=O` (configuration not stated), for which the T/C under setting [7] is 105 % of control, the T/C under setting [8] is 97 % of control and the T/C under setting [9] was 99 % of control.

With `COc1ccc(C(C)c2cc3c(cc2OC)OCO3)cc1OC` (configuration not stated), the T/C reads like this: (dose: 50.0 mg/kg/injection, schedule: Q01DX005 (ip), vehicle: distilled water + Tween-80) 99 % of control; (dose: 100.0 mg/kg/injection, schedule: Q01DX005 (ip), vehicle: distilled water + Tween-80) 98 % of control; (dose: 200.0 mg/kg/injection, schedule: Q01DX005 (ip), vehicle: distilled water + Tween-80) 100 % of control.

In the case of `CC(=O)OCC1OC(n2cnc3c(Cl)nc(N)nc32)C(OC(C)=O)C1OC(C)=O` (configuration not stated), the T/C by setting is: under setting [1], 101 % of control; under setting [2], 101 % of control; under setting [3], 108 % of control; (dose: 200.0 mg/kg/injection, schedule: Q01DX005 (ip), vehicle: Klucel (hydroxypropylcellulose) (HPC)) 105 % of control.

On to `O=C(CC([Se]c1ccccc1)c1ccccc1)c1ccccc1` (configuration not stated), for which the T/C runs as follows: under setting [4], 109 % of control; under setting [5], 109 % of control; under setting [6], 95 % of control.

On to `Cc1cc(Nc2ccc(N(C)C)cc2)c2ccc(N(C)C)cc2n1`, for which the T/C was 95 % of control (dose: 100.0 mg/kg/injection, schedule: Q04DX002 (ip), vehicle: acid diluted with saline); 103 % of control (dose: 200.0 mg/kg/injection, schedule: Q04DX002 (ip), vehicle: acid diluted with saline); 96 % of control (dose: 400.0 mg/kg/injection, schedule: Q04DX002 (ip), vehicle: acid diluted with saline).

Regarding `CC(O)(CO)C(C)(O)c1cn(O)c(=N)c(C(=O)OCc2ccccc2)n1` (configuration not stated), the T/C is 99 % of control under setting [7], 95 % of control under setting [8] and 88 % of control under setting [9].
